# Columns and labels:
# barley microspores = assay: Embryo induction and regeneration following pretreatment of barley genotypes; type: cell-based; details: for % embryoid Regeneration: 500 embryos per plate; for Embryoids: average from 3 plates
# Experimental: Embryogenesis from thirty different barley genotypes was conducted according to the procedure in accordance with the present invention. Between 10,000 to 15,000 embryos were usually produced per plate. Table 2 illustrates some counts of embryos based on an average of three replications (plates). Not all thirty genotypes were counted. However, response of each genotype was judged on the basis of the appearance of plates after two weeks and again after 4 to 5 weeks. Random samples of 500 embryos were taken from the counted plates and placed on regeneration media to estimate the embryo regeneration ability. […] FIG. 4 illustrates barley c.v. Igri embryo development at 3 weeks (FIG. 4(a)) and 5 weeks (FIG. 4(b)) on filter paper placed on solidified induction media.
# Three different pre-treatments were compared within the genotype Igri and no apparent differences were observed relative to embryo induction or regeneration (Table 2). Lina normally responds well in microspore culture following a mannitol pre-treatment, but in this study using the combination of cold plus mannitol for 7 days, response was low. Thus, embryo formation was also counted in Lina when a 21 day cold pretreatment had been used and this response was more typical of Lina (Table 2). The regeneration response from the two pretreatment methods on Lina was similar. The frequency of fertile doubled haploids among the Lina progeny following the two pretreatments was not different, namely 79% after the combination 7-day treatment and 83% after the 21 day cold pretreatment.
# Embryogenesis was visually assessed in barley winter genotypes; OAC Elmira, GBC776, GBC779, GBC780 and GBC781, and spring genotypes, Trinity, Cooper, Golden Promise, Disa, Morex, Excel, Elrose, Bruce, Rodeo, H936 and Sabarilis. […] Under these conditions about 2,000 plants per 10^5 microspores, or about 200 plants per spike on responsive genotypes has been observed.
# [1] = system: barley genotype Igri microspores; assay: Effect of duration of pretreatment on embryo formation; type: cell-based
# Experimental: The effect of the duration of pre-treatment on embryogenesis from barley genotype Igri for spikes incubated with 0.3 mol/L mannitol at 4° C. Table 3 illustrates that as few as 4 days of pre-treatment drastically effects the number of embryos formed from microspores. Although the number formed increases up to 28 days of pre-treatment, only a 4 day period is required to achieve beneficial effects. […] However, duration of pre-treatment did appear to effect Oxbow as previously mentioned, and as illustrated in Table 2.
# [2] = GBC 777, pretreatment 4 d 0.3M man. 4° C.
# [3] = GBC 778, pretreatment 4 d 3.3M man. 4° C.
# [4] = Harrington, pretreatment 3 d 0.3M man. 4° C.
# [5] = Igri, pretreatment 4 d 0.3M man. 4° C.
# [6] = Igri, pretreatment 4 d 0.3M man. 25° C.
# [7] = Lina, pretreatment 7 d 0.3M man 4° C.
# [8] = Manley, pretreatment 4 d 0.3M man. 4° C.
# [9] = Oxbow, pretreatment 21 d 0.3M man. 4° C.
# [10] = cold plus mannitol pre-treatment 3 to 4 days, 0.3 mol/liter mannitol at 4° C., responsive genotypes
compound,measurement,setting,value
OC[C@@H](O)[C@@H](O)[C@H](O)[C@H](O)CO [mannitol],% embryoid Regeneration,barley microspores; [2],89%
same,Embryoids,barley microspores; [2],14133
same,% embryoid Regeneration,barley microspores; [3],84%
same,Embryoids,barley microspores; [3],7667
same,Embryoids,"barley microspores; GBC 782, pretreatment 3 d 0.3M man. 4° C.",14496
same,Embryoids,"barley microspores; GBC 783, pretreatment 3 d 0.3M man. 4° C.",11360
same,% embryoid Regeneration,barley microspores; [4],36%
same,Embryoids,barley microspores; [4],5533
same,% embryoid Regeneration,barley microspores; [5],97%
same,Embryoids,barley microspores; [5],12380
same,% embryoid Regeneration,barley microspores; [6],88%
same,Embryoids,barley microspores; [6],13504
same,frequency of fertile doubled haploids among the Lina progeny,"barley microspores; Lina, combination of cold plus mannitol for 7 days",79%
same,% embryoid Regeneration,barley microspores; [7],81%
same,Embryoids,barley microspores; [7],8921
same,% embryoid Regeneration,barley microspores; [8],74%
same,Embryoids,barley microspores; [8],11360
same,% embryoid Regeneration,barley microspores; [9],58%
same,Embryoids,barley microspores; [9],10810
same,plants per 10^5 microspores,barley microspores; [10],"about 2,000 plants per 10^5 microspores"
same,plants per spike,barley microspores; [10],about 200 plants per spike
same,# Embryos formed,[1]; 4 d pretreatment of spikes at 4° C. in 0.3 mol/liter mannitol,9579
same,# Embryos formed,[1]; 7 d pretreatment of spikes at 4° C. in 0.3 mol/liter mannitol,9693
same,# Embryos formed,[1]; 14 d pretreatment of spikes at 4° C. in 0.3 mol/liter mannitol,8981
same,# Embryos formed,[1]; 21 d pretreatment of spikes at 4° C. in 0.3 mol/liter mannitol,9692
same,# Embryos formed,[1]; 28 d pretreatment of spikes at 4° C. in 0.3 mol/liter mannitol,10213
